In ChEMBL document CHEMBL1127227, “1H-1,2,4-triazole angiostensin II receptor antagonists: qC-linkedq analogs of SC-50560” (Bioorg Med Chem Lett, 1994):
Values joined by “and” are separate entries in the source; they are usually repeats but may differ in a detail not shown here. Equal entries are not always repeated.

Tests used:
Oryctolagus cuniculus = species: Oryctolagus cuniculus; experiment: Antagonism of AII-contracted rabbit aortic rings; type: functional, organism-based, Aorta; settings: for Kb: Oryctolagus cuniculus, Aorta, read-out: pA2 (converted)
Angiotensin II receptor = target: T1, Angiotensin II receptor (Rattus norvegicus, UniProt P29089+P25095+P35351); experiment: Inhibition of [125I]- AII binding to rat uterine membrane angiotensin II receptor
T1 sequence (P29089 whole entry): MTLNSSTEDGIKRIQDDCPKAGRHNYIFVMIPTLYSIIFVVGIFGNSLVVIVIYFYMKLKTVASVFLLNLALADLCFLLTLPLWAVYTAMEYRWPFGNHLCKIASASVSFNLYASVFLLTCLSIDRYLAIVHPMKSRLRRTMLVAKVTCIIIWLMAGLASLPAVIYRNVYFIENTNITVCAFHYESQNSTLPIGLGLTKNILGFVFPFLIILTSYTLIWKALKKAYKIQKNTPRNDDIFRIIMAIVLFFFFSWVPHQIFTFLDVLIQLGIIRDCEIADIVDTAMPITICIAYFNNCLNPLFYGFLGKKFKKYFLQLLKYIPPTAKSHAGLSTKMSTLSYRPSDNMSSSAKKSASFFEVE
T1 sequence (P25095 whole entry): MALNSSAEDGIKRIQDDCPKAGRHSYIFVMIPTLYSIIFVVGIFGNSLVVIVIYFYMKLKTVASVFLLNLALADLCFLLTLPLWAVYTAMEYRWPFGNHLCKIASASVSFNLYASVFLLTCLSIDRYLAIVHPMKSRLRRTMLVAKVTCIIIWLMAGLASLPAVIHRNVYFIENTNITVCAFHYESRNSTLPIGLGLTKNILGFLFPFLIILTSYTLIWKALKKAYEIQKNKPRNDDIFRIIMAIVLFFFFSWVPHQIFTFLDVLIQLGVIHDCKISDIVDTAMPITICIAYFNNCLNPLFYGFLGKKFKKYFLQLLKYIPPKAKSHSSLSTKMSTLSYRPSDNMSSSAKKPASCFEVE
T1 sequence (P35351 whole entry): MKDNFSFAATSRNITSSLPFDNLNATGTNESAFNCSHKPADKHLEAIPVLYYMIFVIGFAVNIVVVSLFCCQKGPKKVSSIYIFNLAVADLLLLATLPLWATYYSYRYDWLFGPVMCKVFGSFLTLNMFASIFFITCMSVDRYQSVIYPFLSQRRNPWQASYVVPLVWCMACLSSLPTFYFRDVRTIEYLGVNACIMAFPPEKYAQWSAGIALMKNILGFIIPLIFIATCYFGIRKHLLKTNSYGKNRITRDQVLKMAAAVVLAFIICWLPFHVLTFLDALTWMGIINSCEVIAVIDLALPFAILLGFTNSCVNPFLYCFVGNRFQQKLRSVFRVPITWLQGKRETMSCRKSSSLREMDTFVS

## CCCCc1nc(C(O)c2ccc(-c3ccccc3-c3nn[nH]n3)cc2)n(CCCC)n1 (stereo not drawn)
Oryctolagus cuniculus
  Kb: 251 nM
Angiotensin II receptor
  IC50: 1800 nM

## CCCCc1nc(Cc2ccc(-c3ccccc3C(=O)O)cc2)n(CCCC)n1
Oryctolagus cuniculus
  Kb: 79.4 nM
Angiotensin II receptor
  IC50: 240 nM

## CCCCc1nc(C(=O)c2ccc(-c3ccccc3-c3nn[nH]n3)cc2)n(CCCC)n1
Angiotensin II receptor
  IC50: 32000 nM

## CCCCc1nc(CCCC)n(Cc2ccc(-c3ccccc3-c3nn[nH]n3)cc2)n1
Oryctolagus cuniculus
  Kb: 2 nM

## CCCCn1nc(CCc2ccccc2)nc1Cc1ccc(-c2ccccc2-c2nn[nH]n2)cc1
Oryctolagus cuniculus
  Kb: 12.6 nM
Angiotensin II receptor
  IC50: 9.5 nM

## CCCCc1nc(Cc2ccc(-c3ccccc3-c3nn[nH]n3)cc2)nn1CCCC
Oryctolagus cuniculus
  pA2: 5.3
  Kb: 10000 nM
Angiotensin II receptor
  IC50: 12000 nM and 6700 nM

## CCCCc1nc(C(C)c2ccc(-c3ccccc3-c3nn[nH]n3)cc2)n(CCCC)n1 (stereo not drawn)
Angiotensin II receptor
  IC50: 29000 nM

## CCCCc1nc(Cc2ccc(-c3ccccc3-c3nn[nH]n3)cc2)n(CCCC)n1
Oryctolagus cuniculus
  Kb: 3.16 nM
Angiotensin II receptor
  IC50: 16 nM

## CCCCc1nc(C(F)(F)c2ccc(-c3ccccc3-c3nn[nH]n3)cc2)n(CCCC)n1
Angiotensin II receptor
  IC50: 710 nM

## CCCCc1nc(Cc2ccc(-c3ccccc3-c3nnn(C(c4ccccc4)(c4ccccc4)c4ccccc4)n3)cc2)n(CCCC)n1
Angiotensin II receptor
  IC50: 140 nM

## CCCCn1nc(C(F)(F)CCC)nc1Cc1ccc(-c2ccccc2-c2nn[nH]n2)cc1
Oryctolagus cuniculus
  Kb: 10 nM
Angiotensin II receptor
  IC50: 40 nM
